Measured values: patent US6117866A, “Bicyclic fibrinogen antagonists” (SmithKline Beecham Corporation, priority 1996, dated 2000)
pIC50: −log10 of the molar value.

Tested on: human platelets
Assay: Inhibition of Platelet Aggregation (human platelets stimulated with ADP)
Format: cell-based
Conditions: in vitro

Row | Structure (SMILES) | pIC50
1 | O=C(O)CC1Nc2cc(C(=O)Nc3ccc4c(c3)CNCC4)ccc2CN(CCc2ccccc2)C1=O (racemic) [Example 4, (R,S)-8-[[(1,2,3,4-tetrahydro-7-isoquinolinyl]amino]carbonyl]-2,3,4,5-tetrahydro-3-oxo-4-(2-phenylethyl)-1H-1,4-benzodiazepine-2-acetic acid] | ~4.12
2 | CN1Cc2cc(C(=O)N3CCC(C4CCNCC4)CC3)ccc2N[C@H](CC(=O)O)C1=O [Example 26, (R)-7-[(4,4'-bipiperidin-1-yl)carbonyl]-2,3,4,5-tetrahydro-4-methyl-3-oxo-1H-1,4-benzodiazepine-2-acetic acid] | 4.96 to 6.70

Other lines, results leading:

Row | pIC50 | Structure (SMILES)
3 | 4.96 to 6.70 | O=C(O)CC1Nc2ccc(C(=O)Nc3ccc4c(c3)CNCC4)cc2CN(CCc2ccccc2)C1=O (racemic) [Example 7, (R,S)-7-[[(1,2,3,4-tetrahydro-7-isoquinolinyl]amino]carbonyl]-2,3,4,5-tetrahydro-3-oxo-4-(2-phenylethyl)-1H-1,4-benzodiazepine-2-acetic acid]
4 | 4.96 to 6.70 | CN(CCC1CCNCC1)C(=O)c1ccc2c(c1)CC(CCC(=O)O)C(=O)N(CCc1ccccc1)C2 (racemic) [Example 22, (R,S)-2,3,4,5-tetrahydro-3-oxo-2-(2-phenylethyl)-7-[[[2-(4-piperidinyl)ethyl]-methylamino]carbonyl]-1H-2-benzazepine-4-propionic acid]
5 | 4.96 to 6.70 | O=C(O)CC1Nc2ccc(C(=O)N3CCC(C4CCNCC4)CC3)cc2CN(CCc2ccccc2)C1=O (single isomer, unassigned; (+)) [Example 23, (+)-7-[(4,4'-bipiperidin-1-yl)carbonyl]-2,3,4,5-tetrahydro-3-oxo-4-(phenylethyl)-1H-1,4-benzodiazepine-2-acetic acid]
